# From the supplement of paper PMC10307832
# How the values were obtained:
# Assay in all cases: relative viability (nuclei count vs DMSO), 5 days (fraction); higher = more cells survive
# [1] = compound: C1COCCN1C2=NC(=NC3=C2OC4=C3C=CC=N4)C5=CC(=CC=C5)NC(=O)C6=CN=C(C=C6)N + N=C(N)NC(=N)NCCc1ccccc1 [Phenformin] (partner 250 µM)
# In short: (§1)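 Lung cancer cell lines in 1536-well plates got either a single drug or a fixed anchor-drug dose together with five library-drug doses (not always all listed) in √10 steps, by pin tool, on the day after seeding. Nuclei were counted after 5 days, and relative viability is the treated-to-vehicle ratio of nuclei counts. Values are medians of duplicate plates.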
# [2] = compound: C1COCCN1C2=NC(=NC3=C2OC4=C3C=CC=N4)C5=CC(=CC=C5)NC(=O)C6=CN=C(C=C6)N + Nc1ncn([C@H]2C[C@H](O)[C@@H](CO)O2)c(=O)n1 [Decitabine] (partner 2 µM)
# In short: as §1
# SGI-1776 + Alpelisib = compound: CN1CCC(CNc2ccc3ncc(-c4cccc(OC(F)(F)F)c4)n3n2)CC1 [SGI-1776] + Cc1nc(NC(=O)N2CCC[C@H]2C(N)=O)sc1-c1ccnc(C(C)(C)C(F)(F)F)c1 [Alpelisib] (partner 2 µM)
# In short: as §1
# Entinostat + Lapatinib = compound: Nc1ccccc1NC(=O)c1ccc(CNC(=O)OCc2cccnc2)cc1 [Entinostat] + CS(=O)(=O)CCNCc1ccc(-c2ccc3ncnc(Nc4ccc(OCc5cccc(F)c5)c(Cl)c4)c3c2)o1 [Lapatinib] (partner 2 µM)
# In short: as §1
Cell Line,relative viability ([1]; first compound 0.02 µM),relative viability ([1]; first compound 0.06325 µM),relative viability ([1]; first compound 0.2 µM),relative viability ([1]; first compound 0.6325 µM),relative viability ([1]; first compound 2 µM),relative viability ([2]; first compound 0.02 µM),relative viability ([2]; first compound 0.06325 µM),relative viability ([2]; first compound 0.2 µM),relative viability ([2]; first compound 0.6325 µM),relative viability ([2]; first compound 2 µM),relative viability (SGI-1776 + Alpelisib; first compound 0.08 µM),relative viability (SGI-1776 + Alpelisib; first compound 0.8 µM),relative viability (SGI-1776 + Alpelisib; first compound 2.53 µM),relative viability (SGI-1776 + Alpelisib; first compound 8 µM),relative viability (Entinostat + Lapatinib; first compound 0.02 µM),relative viability (Entinostat + Lapatinib; first compound 0.06325 µM),relative viability (Entinostat + Lapatinib; first compound 0.2 µM),relative viability (Entinostat + Lapatinib; first compound 0.6325 µM),relative viability (Entinostat + Lapatinib; first compound 2 µM)
NCI-H838,0.514,0.687,0.485,0.414,0.198,0.437,0.437,0.413,0.5,0.371,1.1,1.01,0.95,0.874,1.13,1.12,0.983,0.696,0.255
HARA,0.413,0.586,0.487,0.431,0.363,0.529,0.569,0.64,0.576,0.412,1.01,0.935,0.803,0.678,0.792,0.872,0.786,0.671,0.374
NCI-H23,0.818,,0.815,0.747,0.669,0.285,0.371,0.288,0.378,0.277,0.722,0.725,0.616,0.57,1.17,1.13,1.02,0.616,0.476
LOU-NH91,0.709,0.723,0.724,0.721,0.652,0.792,0.843,0.822,0.794,0.746,0.783,0.691,0.707,0.533,0.781,0.848,0.769,0.765,0.561
LCLC-103H,0.328,0.34,0.33,0.343,0.252,0.724,0.723,0.731,0.733,0.527,0.996,0.862,0.939,0.924,,,,,
SW 1573,0.368,0.454,0.314,0.319,0.205,0.555,0.472,0.565,0.543,0.422,0.666,0.763,0.906,0.581,1.42,1.23,1.19,1.29,0.949
EKVX,0.223,0.21,0.207,0.216,0.181,0.335,0.321,0.325,0.383,0.567,0.885,0.933,0.869,0.72,0.254,0.219,0.209,0.161,0.153
IA-LM,,,,,,,,,,,0.883,0.977,0.764,0.874,0.892,0.926,1.17,0.601,0.514
HCC-827,0.384,0.43,0.419,0.416,0.386,0.343,0.298,0.348,0.287,0.302,1.08,0.993,1.06,0.849,0.18,0.184,0.126,0.147,0.17
NCI-H661,0.268,0.3,0.263,0.248,0.206,0.593,0.578,0.603,0.63,0.444,0.81,1.06,0.592,0.479,0.573,0.587,0.8,0.661,0.476
CAL-12T,0.525,0.561,0.533,0.498,0.247,,,,,,1.23,1.37,1.66,1.08,0.606,0.762,0.55,0.501,0.466
NCI-H2342,0.651,0.564,0.565,0.695,0.576,0.724,0.727,0.751,0.743,0.693,,,,,,,,,
SW 900,0.425,0.674,0.557,0.376,0.345,0.402,0.42,0.448,0.648,0.558,,,,,,,,,
LC-2-ad,0.551,0.598,0.456,0.493,0.49,0.881,0.788,0.92,0.835,0.618,1.06,1,0.94,0.731,0.975,0.904,0.907,0.334,0.113
EPLC-272H,0.306,0.305,0.26,0.241,0.282,0.329,,0.386,0.382,0.376,0.943,0.952,1.16,0.804,0.951,0.831,1.27,0.365,0.334
A-427,0.397,0.359,0.275,0.245,0.292,0.588,0.512,0.619,0.679,0.579,1.16,1.14,1.12,1.02,1.16,1.08,1.07,0.983,0.83
NCI-H650,0.453,0.469,0.417,0.457,0.431,0.315,0.361,0.333,0.443,0.494,1.19,1.04,1.04,0.921,1.02,1.24,0.976,0.543,0.199
NCI-H1993,0.483,0.498,0.501,0.513,0.522,0.549,0.293,0.531,0.547,0.57,0.631,0.684,0.687,0.594,0.749,0.911,0.867,0.728,0.69
NCI-H358,,0.36,0.269,0.248,0.169,0.221,0.212,0.211,0.247,0.182,0.786,0.837,0.751,0.405,0.467,0.438,0.521,0.367,0.287
RERF-LC-KJ,0.416,0.484,0.395,0.426,0.291,0.71,0.826,0.617,0.758,0.585,0.805,0.844,0.926,0.666,0.775,0.794,0.816,0.476,0.321
NCI-H1915,0.338,0.383,0.397,0.392,0.302,0.255,0.261,0.26,0.559,0.335,1.09,1.12,1.11,1.03,0.985,1.05,1.01,0.633,0.315

Cell Line,relative viability ([1]; first compound 0.02 µM),relative viability ([1]; first compound 0.06325 µM),relative viability ([1]; first compound 0.2 µM),relative viability ([1]; first compound 0.6325 µM),relative viability ([1]; first compound 2 µM),relative viability ([2]; first compound 0.02 µM),relative viability ([2]; first compound 0.06325 µM),relative viability ([2]; first compound 0.2 µM),relative viability ([2]; first compound 0.6325 µM),relative viability ([2]; first compound 2 µM),relative viability (SGI-1776 + Alpelisib; first compound 0.08 µM),relative viability (SGI-1776 + Alpelisib; first compound 0.8 µM),relative viability (SGI-1776 + Alpelisib; first compound 2.53 µM),relative viability (SGI-1776 + Alpelisib; first compound 8 µM),relative viability (Entinostat + Lapatinib; first compound 0.02 µM),relative viability (Entinostat + Lapatinib; first compound 0.06325 µM),relative viability (Entinostat + Lapatinib; first compound 0.2 µM),relative viability (Entinostat + Lapatinib; first compound 0.6325 µM),relative viability (Entinostat + Lapatinib; first compound 2 µM)
NCI-H647,0.574,0.768,0.466,0.519,0.195,0.524,0.478,0.527,0.519,0.325,1.31,1.15,1.1,0.558,0.936,0.868,0.996,0.322,0.101
SK-LU-1,0.56,0.488,0.513,0.567,0.349,0.595,0.715,0.609,0.616,0.46,1.02,1.01,0.816,0.406,0.825,0.775,0.55,0.573,0.516
NCI-H441,0.798,0.868,0.731,0.833,0.527,0.23,0.298,0.27,0.326,0.248,0.751,0.478,0.697,0.588,,,,,
COR-L 105,0.402,0.517,0.404,0.41,0.274,0.604,0.683,0.61,0.621,0.572,1.13,1.05,1.03,0.759,0.362,0.357,0.358,0.328,0.34
NCI-H2009,0.468,0.485,0.449,0.371,0.242,0.373,0.367,0.415,0.456,0.395,1.21,1.17,1.25,1.09,0.954,0.984,0.827,0.685,0.396
NCI-H1563,0.647,0.636,0.654,0.593,0.532,,,,,,0.928,1,0.874,0.695,0.915,1.01,0.891,0.821,0.581
PC-14,0.478,0.36,0.397,0.446,0.268,0.182,0.26,0.226,0.295,0.173,1.12,0.956,0.976,0.757,0.293,0.29,0.146,0.151,0.105
NCI-H1703,,,,,,,,,,,0.367,0.312,0.299,0.165,1.22,1.17,1.59,1.05,0.453
NCI-H1944,0.217,0.244,0.182,0.194,0.142,0.418,0.474,0.456,0.527,0.476,0.877,0.752,0.807,0.649,0.851,0.768,0.787,0.354,0.271
NCI-H2085,0.686,0.753,0.678,0.629,0.398,0.486,0.626,0.57,0.649,0.559,1.01,0.96,0.978,0.844,0.748,0.825,0.744,0.545,0.443
EBC-1,,,,,,,,,,,0.888,0.78,0.903,0.434,0.213,0.211,0.208,0.181,0.184
NCI-H1792,0.245,0.471,0.211,0.218,0.179,0.688,0.66,0.519,0.531,0.213,0.765,0.663,0.696,0.552,0.953,0.96,0.836,0.767,0.513
NCI-H1650,0.358,0.402,0.413,0.355,0.237,0.415,0.401,0.58,0.661,0.461,,,,,0.79,0.897,0.888,0.521,0.329
NCI-H1648,,,,,,0.41,0.481,0.456,0.509,0.52,,,,,,,,,
NCI-H1299,,,,,,,,,,,1.11,1.01,1.07,1.08,0.927,0.933,0.956,0.805,0.571
NCI-H1623,0.634,0.587,0.6,0.562,0.407,,,,,,,,,,,,,,
NCI-H2228,0.322,0.392,0.273,0.233,0.222,,,,,,0.776,0.636,0.727,0.239,1.12,1.02,1.08,0.457,0.315
NCI-H522,0.638,0.701,0.63,1.49,0.599,0.633,0.798,0.694,0.563,0.645,,,,,,,,,
Calu-6,,,,,,,,,,,1.01,0.955,1.23,0.628,1.09,0.967,0.963,0.698,0.498
ChaGo-K-1,0.464,0.583,0.533,0.456,0.459,0.563,0.544,0.517,0.601,0.458,,,,,,,,,
